Data published in patent publication US20250376479A1, “EXATECAN DERIVATIVES AND USES THEREOF” (priority 2024, published 2025).

Tests used:
LS1034 = assay: Cytotoxicity test, luminescent cell viability; format: cell-based; conditions: Homo sapiens, LS-1034; LS1034 (Colon carcinoma), 72-hour incubation
Excerpt: (§1) Cytotoxicity of compounds was investigated using SHP77 (SCLC ATCC No. CRL-2195), NCI-H82 (SCLC, Jennio-bio No. JNO-22126A), NCI-H524 (SCLC, Pricella NO. CL-0403), NCI-H226 (Lung cancer, Pricella NO. CL-0396), NCI-H460 (LCLC, Pricella NO. CL-0299), OVCAR3 (Ovarian cancer, ATCC No. HTB-161), OV90 (Ovarian cancer, ATCC No. CRL-11732), LS1034 (Colon carcinoma, cobioer No. CBP60013), HT55 (Colon carcinoma, cobioer No. CBP60012), MDA-MB-468 (Breast cancer, ATCC No.htb-132) and NCI-N87 (Stomach cancer, ATCC No.CRL-5822). In brief, 5,000 cells/well of cancer cells were platted in white 96-well assay plates with flat clear bottom (Cat. No. BS-MP-96W, Biosharp) (excluding edge wells, which contained medium or PBS only) in 90 μL basic culture medium and were grown at 37° C. in a humidified incubator at 5% CO2 atmosphere. After incubation overnight, each compound was added to the respective wells in an amount of 10 μl of 10× concentrate tests from 100 nM to 0.015 nM. After additional 72-hour incubation, plates were removed from incubator and equilibrated to room temperature. After approximately 30 mins, 50 μL of Cell counting-lite 2.0 Luminescent Cell Viability Assay (Cat. No. G7573, Promega) were added to each well. After shaking the plates at 450 rpm for 3 mins followed by 10-min incubation without shaking, luminescence was measured on the Envision plate reader (Equipment No. 2104, PerkinElmer) with integration time of 250 ms per well. Curves of luminescence versus concentration (nM) were fitted with GraphPad Prism Software.

HT55 = assay: Cytotoxicity test, luminescent cell viability; format: cell-based; conditions: Homo sapiens; HT55 (Colon carcinoma), 72-hour incubation
Excerpt: as §1

SHP77 = assay: Cytotoxicity test, luminescent cell viability; format: cell-based; conditions: Homo sapiens; SHP77 (SCLC), 72-hour incubation
Excerpt: as §1

NCI-H226 = assay: Cytotoxicity test, luminescent cell viability; format: cell-based; conditions: Homo sapiens; NCI-H226 (Lung cancer), 72-hour incubation
Excerpt: as §1

NCI-H524 = assay: Cytotoxicity test, luminescent cell viability; format: cell-based; conditions: Homo sapiens; NCI-H524 (SCLC), 72-hour incubation
Excerpt: as §1

OV90 = assay: Cytotoxicity test, luminescent cell viability; format: cell-based; conditions: Homo sapiens, OV-90; OV90 (Ovarian cancer), 72-hour incubation
Excerpt: as §1

NCI-N87 = assay: Cytotoxicity test, luminescent cell viability; format: cell-based; conditions: Homo sapiens; NCI-N87 (Stomach cancer), 72-hour incubation; read-out: IC50 NC-N87
Excerpt: as §1

MDA-MB-468 = assay: Cytotoxicity test, luminescent cell viability; format: cell-based; conditions: Homo sapiens; MDA-MB-468 (Breast cancer), 72-hour incubation
Excerpt: as §1

NCI-H460 = assay: Cytotoxicity test, luminescent cell viability; format: cell-based; conditions: Homo sapiens; NCI-H460 (LCLC), 72-hour incubation
Excerpt: as §1

NCI-H82 = assay: Cytotoxicity test, luminescent cell viability; format: cell-based; conditions: Homo sapiens; NCI-H82 (SCLC), 72-hour incubation
Excerpt: as §1

OVCAR3 = assay: Cytotoxicity test, luminescent cell viability; format: cell-based; conditions: Homo sapiens, OVCAR-3; OVCAR3 (Ovarian cancer), 72-hour incubation
Excerpt: as §1

[1] = Membrane permeability test (Caco-2 monolayer); format: in vitro ADME; conditions: human, Caco-2, pH 7.4
Method: Caco-2 cells purchased from ATCC were seeded onto 0.4 μm pore polycarbonate membranes (PC) in 96-well Corning Insert plates at 3.5×10^4 cells/cm^2, and refreshed medium every 4˜5 days until to the 21st to 28th day for confluent cell monolayer formation.
The transport buffer in the study was HBSS with 10.0 mM HEPES at pH 7.40±0.05. Each test compound was tested at 2.00 μM in the presence or absence of 1.00 μM zosuquidar bi-directionally in duplicate. Digoxin was tested at 10.0 μM in the presence or absence of 1.00 μM zosuquidar bi-directionally in duplicate, while nadolol and metoprolol were tested at 2.00 μM in the absence of zosuquidar in A to B direction in duplicate. Final DMSO concentration was adjusted to less than 1%. The plate was incubated for 2 hours in CO2 incubator at 37.0° C., with 5% CO2 at saturated humidity without shaking. And all samples after mixed with acetonitrile containing internal standard were centrifuged at 3220×g for 10 min. Concentrations of test compounds in starting solution, donor solution and receiver solution were quantified by LC-MS/MS methodologies, using peak area ratio of analyte/internal standard. And permeation of lucifer yellow through the monolayer was measured to evaluate the cellular integrity.
The apparent permeability coefficient Papp (cm/s) was calculated using the equation: […]
where dCr/dt is the cumulative concentration of compound in the receiver chamber as a function of time; Vr is the solution volume in the receiver chamber (0.0750 mL on the apical side, 0.250 mL on the basolateral side); A is the surface area for the transport, i.e., 0.143 cm2 for the area of the monolayer; C0 is the initial concentration in the donor chamber.

| Compound | IC50 (LS1034) [nM] | IC50 (HT55) [nM] | IC50 (SHP77) [nM] | IC50 (NCI-H226) [nM] | IC50 (NCI-H524) [nM] | IC50 (OV90) [nM] | IC50 (NCI-N87) [nM] | IC50 (MDA-MB-468) [nM] | IC50 (NCI-H460) [nM] | IC50 (NCI-H82) [nM] | IC50 (OVCAR3) [nM] | Papp A→B at 2 h, 2 μM [1] [×10⁻⁶ cm/s] |
| --- | --- | --- | --- | --- | --- | --- | --- | --- | --- | --- | --- | --- |
| CC[C@@]1(O)C(=O)OCc2c1cc1n(c2=O)Cc2c-1nc1cc(F)c(C)c3c1c2[C@H](NC(=O)CC(C)C)CC3 [Compound 8] | 159 | 110 | 156 | 6 | 21 | 17.8 | 4.7 | 2.1 | 4.5 | 53.8 | 95.7 | – |
| CC[C@@]1(O)C(=O)OCc2c1cc1n(c2=O)Cc2c-1nc1cc(F)c(C)c3c1c2[C@H](NC(=O)C1COC1)CC3 [Compound 4] | 249 | 349 | 655 | 44.6 | 90.6 | 76 | 29.6 | 6.7 | 31.2 | 1500 | 395 | 0.026 |
| CC[C@@]1(O)C(=O)OCc2c1cc1n(c2=O)Cc2c-1nc1cc(F)c(C)c3c1c2[C@H](NC(=O)CN(C)C)CC3 [Compound 2] | 205 | 315 | 301 | 21 | 40.4 | 15.2 | 13 | 10.8 | 15.5 | 154 | 208 | 0.199 |
| CCCCC(=O)N[C@@H]1CCc2c(C)c(F)cc3nc4c(c1c23)Cn1c-4cc2c(c1=O)COC(=O)[C@]2(O)CC [Compound 1] | 63.5 | 130 | 45.7 | 4.8 | 4.4 | 3.9 | 6.2 | 2.5 | 10.2 | 96 | 92.9 | 0.365 |
| CC[C@@]1(O)C(=O)OCc2c1cc1n(c2=O)Cc2c-1nc1cc(F)c(C)c3c1c2[C@H](NC(=O)C(C)C)CC3 [Compound 10] | 114 | 69.6 | 101 | 5.1 | 17.9 | 9.8 | 5.2 | 2.9 | 7.4 | 61.7 | 68.1 | 0.358 |
| CC[C@@]1(O)C(=O)OCc2c1cc1n(c2=O)Cc2c-1nc1cc(F)c(C)c3c1c2[C@H](NC(=O)C1CCC1)CC3 [Compound 6] | 55.3 | 215 | 68 | 3.8 | 9.9 | 8.9 | 3.5 | 2.5 | 6.8 | 57.3 | 89.3 | 0.264 |
| CC[C@@]1(O)C(=O)OCc2c1cc1n(c2=O)Cc2c-1nc1cc(F)c(C)c3c1c2[C@H](NC(=O)C1CC1)CC3 [Compound 3] | 41.7 | 68.1 | 60 | 3.6 | 11.3 | 5.1 | 5.3 | 2.1 | 8.9 | 50.2 | 91.2 | 0.279 |
| CC[C@@]1(O)C(=O)OCc2c1cc1n(c2=O)Cc2c-1nc1cc(F)c(C)c3c1c2[C@H](NC(=O)C1CCCO1)CC3 (some centres unmarked) [Compound 7] | 170 | 104 | 236 | 17.9 | 39.5 | 26 | 7.4 | 4.8 | 11.2 | 171 | 144 | 0.56 |
| CC[C@@]1(O)C(=O)OCc2c1cc1n(c2=O)Cc2c-1nc1cc(F)c(C)c3c1c2[C@H](NC(=O)CCOC)CC3 [Compound 5] | 158 | 192 | 202 | 9.8 | 21.5 | 9.6 | 16.8 | 5.1 | 19.4 | 288 | 270 | 0.105 |
